Among the data in US20260022142A1, “MACROCYCLIC IMMUNOMODULATORS” (Bristol-Myers Squibb Company, priority 2022, published 2026) are IC50 values, retold here.

The structures appear in SMILES notation. Bridge positions count the residues as written; N and C are the ends. Square brackets hold non-standard residues; d marks the D form. Peptide text beside a SMILES is read from it. * marks the point of attachment. Phe(3,4-(OMe)2) = COc1ccc(C[C@H](N)C(=O)O)cc1OC; Phe(F5) = N[C@@H](Cc1c(F)c(F)c(F)c(F)c1F)C(=O)O; Ala(morpholin-4-yl) = N[C@@H](CN1CCOCC1)C(=O)O; Phe(4-COOH) = N[C@@H](Cc1ccc(C(=O)O)cc1)C(=O)O; Bip = N[C@@H](Cc1ccc(-c2ccccc2)cc1)C(=O)O; Phe(2-Cl) = N[C@@H](Cc1ccccc1Cl)C(=O)O; Phe(3-Me) = Cc1cccc(C[C@H](N)C(=O)O)c1; Phe(2-Me) = Cc1ccccc1C[C@H](N)C(=O)O; Val(3-OH) = CC(C)(O)[C@H](N)C(=O)O; Aha = [N-]=[N+]=NCC[C@H](N)C(=O)O; hCha = N[C@@H](CCC1CCCCC1)C(=O)O; 4Pal = N[C@@H](Cc1ccncc1)C(=O)O; Cha = N[C@@H](CC1CCCCC1)C(=O)O; Ahp(2) = CCCCC[C@H](N)C(=O)O; 3Abz = Nc1cccc(C(=O)O)c1; Carboxymethyl = O=C(O)C*; Orn = NCCC[C@H](N)C(=O)O; Pra = C#CC[C@H](N)C(=O)O; Aun = NCCCCCCCCCCC(=O)O; Dab = NCC[C@H](N)C(=O)O; Dap = NC[C@H](N)C(=O)O; AEEA = NCCOCCOCC(=O)O

The target of the experiment is T1, PD-1/PD-L1 interaction (PE-labeled human PD-L1-Ig binding to Jurkat cell line over-expressing human PD-1) (Homo sapiens, UniProt Q15116).
T1 construct: expressed in transfected cells; host or cells: Jurkat
T1 sequence (Q15116 25-288): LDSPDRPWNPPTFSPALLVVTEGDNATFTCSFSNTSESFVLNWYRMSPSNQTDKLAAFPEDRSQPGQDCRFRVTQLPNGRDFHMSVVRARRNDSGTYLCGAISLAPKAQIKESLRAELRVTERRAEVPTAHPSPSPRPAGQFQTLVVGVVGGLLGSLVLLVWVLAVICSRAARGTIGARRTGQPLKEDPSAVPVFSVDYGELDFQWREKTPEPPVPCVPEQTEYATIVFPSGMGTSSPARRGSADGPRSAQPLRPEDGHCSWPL
The experiment in a line: Jurkat-PD-1 Cell Binding High-Content Screening Assay (CBA). The conditions noted are these: Jurkat cell line over-expressing human PD-1; PE-labeled PD-L1-Ig 20 nM final; read-out: Jurkat hPD1-PDL1 IC50. It is filed as cell-based. In outline: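 Jurkat-hPD-1 cells, DMEM/10% FCS; cpd 2 h 37° C; PE-PD-L1-Ig 20 nM final, 1 h; 4% PFA fix + Hoechst 33342, 3× dPBS wash; high-content imaging read-out.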
As for `Cc1cccc(C[C@@H]2NC(=O)[C@H](CC(=O)O)NC(=O)[C@H](Cc3ccc(OCC(=O)O)cc3)NC(=O)[C@H](CN)NC(=O)CSC[C@@H](C(=O)N[C@@H](CCN)C(=O)NCCOCCOCC(=O)NCCCCCCCCCCC(=O)O)NC(=O)[C@H](CCC(=O)O)NC(=O)[C@H](C(C)C)NC(=O)[C@H](Cc3c(F)c(F)c(F)c(F)c3F)NC(=O)[C@H](CCN)NC(=O)[C@@H](CC(C)C)NC(=O)[C@H](CCCN)NC(=O)[C@H](Cc3ccc(OCC(=O)O)cc3)NC(=O)[C@H](Cc3ccc(-c4ccccc4)cc3)NC(=O)[C@H](Cc3ccc(C(=O)O)cc3)NC2=O)c1` [Compound 1273] ({CH2CO}-[Dap]Y(Carboxymethyl)D[Phe(3-Me)][Phe(4-COOH)][Bip]Y(Carboxymethyl)[Orn][dL][Dab][Phe(F5)]VEC[Dab][AEEA][Aun]-OH; thioether N-14), the IC50 was 331 nM.

Take `Cc1cccc(C[C@@H]2NC(=O)[C@H](CC(=O)O)NC(=O)[C@H](Cc3ccc(OCC(=O)O)cc3)NC(=O)[C@H](CN)NC(=O)CSC[C@@H](C(=O)N[C@@H](CCN)C(=O)NCCOCCOCC(=O)NCCCCCCCCCCC(=O)O)NC(=O)[C@H](CCC(=O)O)NC(=O)[C@H](C(C)C)NC(=O)[C@H](Cc3ccccc3C)NC(=O)[C@H](CCN)NC(=O)[C@@H](CC(C)C)NC(=O)[C@H](CCCN)NC(=O)[C@H](Cc3ccc(OCC(=O)O)cc3)NC(=O)[C@H](Cc3ccc(-c4ccccc4)cc3)NC(=O)[C@H](Cc3ccc(C(=O)O)cc3)NC2=O)c1` [Compound 1274] ({CH2CO}-[Dap]Y(Carboxymethyl)D[Phe(3-Me)][Phe(4-COOH)][Bip]Y(Carboxymethyl)[Orn][dL][Dab][Phe(2-Me)]VEC[Dab][AEEA][Aun]-OH; thioether N-14): the IC50 came to 9.8 nM. To `CCCCC[C@@H]1NC(=O)[C@H](CCN)NC(=O)[C@@H](CC(C)C)NC(=O)[C@H](CCCN)NC(=O)[C@H](Cc2ccc(OCC(=O)O)cc2)NC(=O)[C@H](Cc2ccc(-c3ccccc3)cc2)NC(=O)[C@H](Cc2ccc(C(=O)O)cc2)NC(=O)[C@H](Cc2cccc(C)c2)NC(=O)[C@H](CC(=O)O)NC(=O)[C@H](Cc2ccc(OCC(=O)O)cc2)NC(=O)[C@H](CN)NC(=O)CSC[C@@H](C(=O)N[C@@H](CCN)C(=O)NCCOCCOCC(=O)NCCCCCCCCCCC(=O)O)NC(=O)[C@H](CCC(=O)O)NC(=O)[C@H](C(C)C)NC1=O` [Compound 1275] ({CH2CO}-[Dap]Y(Carboxymethyl)D[Phe(3-Me)][Phe(4-COOH)][Bip]Y(Carboxymethyl)[Orn][dL][Dab][Ahp(2)]VEC[Dab][AEEA][Aun]-OH; thioether N-14) belongs 47.5 nM; to `Cc1cccc(C[C@@H]2NC(=O)[C@H](CC(=O)O)NC(=O)[C@H](Cc3ccc(OCC(=O)O)cc3)NC(=O)[C@H](CN)NC(=O)CSC[C@@H](C(=O)N[C@@H](CCN)C(=O)NCCOCCOCC(=O)NCCCCCCCCCCC(=O)O)NC(=O)[C@H](CCC(=O)O)NC(=O)[C@H](C(C)C)NC(=O)[C@H](CCC3CCCCC3)NC(=O)[C@H](CCN)NC(=O)[C@@H](CC(C)C)NC(=O)[C@H](CCCN)NC(=O)[C@H](Cc3ccc(OCC(=O)O)cc3)NC(=O)[C@H](Cc3ccc(-c4ccccc4)cc3)NC(=O)[C@H](Cc3ccc(C(=O)O)cc3)NC2=O)c1` [Compound 1276] ({CH2CO}-[Dap]Y(Carboxymethyl)D[Phe(3-Me)][Phe(4-COOH)][Bip]Y(Carboxymethyl)[Orn][dL][Dab][hCha]VEC[Dab][AEEA][Aun]-OH; thioether N-14), 49.9 nM; to `Cc1cccc(C[C@@H]2NC(=O)[C@H](CC(=O)O)NC(=O)[C@H](Cc3ccc(OCC(=O)O)cc3)NC(=O)[C@H](CN)NC(=O)CSC[C@@H](C(=O)N[C@@H](CCN)C(=O)NCCOCCOCC(=O)NCCCCCCCCCCC(=O)O)NC(=O)[C@H](CCC(=O)O)NC(=O)[C@H](C(C)C)NC(=O)[C@H](Cc3ccccc3Cl)NC(=O)[C@H](CCN)NC(=O)[C@@H](CC(C)C)NC(=O)[C@H](CCCN)NC(=O)[C@H](Cc3ccc(OCC(=O)O)cc3)NC(=O)[C@H](Cc3ccc(-c4ccccc4)cc3)NC(=O)[C@H](Cc3ccc(C(=O)O)cc3)NC2=O)c1` [Compound 1277] ({CH2CO}-[Dap]Y(Carboxymethyl)D[Phe(3-Me)][Phe(4-COOH)][Bip]Y(Carboxymethyl)[Orn][dL][Dab][Phe(2-Cl)]VEC[Dab][AEEA][Aun]-OH; thioether N-14), 14.4 nM. To `C#CC[C@H](NC(=O)[C@H](CCN)NC(=O)[C@@H]1CSCC(=O)N[C@@H](Cc2ccncc2)C(=O)N[C@@H](Cc2ccc(OCC(=O)O)cc2)C(=O)N[C@@H](CC(=O)O)C(=O)N[C@@H](Cc2cccc(C)c2)C(=O)N[C@@H](Cc2ccc(OC)cc2)C(=O)N[C@@H](Cc2ccc(-c3ccccc3)cc2)C(=O)N[C@@H](Cc2ccc(OCC(=O)O)cc2)C(=O)N[C@@H](CCCN)C(=O)N[C@H](CC(C)C)C(=O)N[C@@H](CCN)C(=O)N[C@@H](CC2CCCCC2)C(=O)N[C@@H](C(C)(C)O)C(=O)N[C@@H](CO)C(=O)N1)C(=O)NCCCCCCCCCCC(=O)O` [Compound 1278] ({CH2CO}-[4Pal]Y(Carboxymethyl)D[Phe(3-Me)]Y(Me)[Bip]Y(Carboxymethyl)[Orn][dL][Dab][Cha][Val(3-OH)]SC[Dab][Pra][Aun]-OH; thioether N-14) belongs 140 nM; to `C#CC[C@H](NC(=O)[C@H](CCN)NC(=O)[C@@H]1CSCC(=O)N[C@@H](CN2CCOCC2)C(=O)N[C@@H](Cc2ccc(OCC(=O)O)cc2)C(=O)N[C@@H](CC(=O)O)C(=O)N[C@@H](Cc2cccc(C)c2)C(=O)N[C@@H](Cc2ccc(OCC(=O)O)cc2)C(=O)N[C@@H](Cc2ccc(-c3ccccc3)cc2)C(=O)N[C@@H](Cc2ccc(OCC(=O)O)cc2)C(=O)N[C@@H](CCCN)C(=O)N[C@H](CC(C)C)C(=O)N[C@@H](CCN)C(=O)N[C@@H](CC2CCCCC2)C(=O)N[C@@H](C(C)(C)O)C(=O)N[C@@H](CO)C(=O)N1)C(=O)NCCCCCCCCCCC(=O)O` [Compound 1279] ({CH2CO}-[Ala(morpholin-4-yl)]Y(Carboxymethyl)D[Phe(3-Me)]Y(Carboxymethyl)[Bip]Y(Carboxymethyl)[Orn][dL][Dab][Cha][Val(3-OH)]SC[Dab][Pra][Aun]-OH; thioether N-14), 9 nM; to `COc1ccc(C[C@@H]2NC(=O)[C@H](Cc3cccc(C)c3)NC(=O)[C@H](CC(=O)O)NC(=O)[C@H](Cc3ccc(OCC(=O)O)cc3)NC(=O)[C@H](Cc3ccncc3)NC(=O)CSC[C@@H](C(=O)N[C@@H](CCN)C(=O)N[C@@H](CCN=[N+]=[N-])C(=O)NCCCCCCCCCCC(=O)O)NC(=O)[C@H](CO)NC(=O)[C@H](C(C)(C)O)NC(=O)[C@H](CC3CCCCC3)NC(=O)[C@H](CCN)NC(=O)[C@@H](CC(C)C)NC(=O)[C@H](CCCN)NC(=O)[C@H](Cc3ccc(OCC(=O)O)cc3)NC(=O)[C@H](Cc3ccc(-c4ccccc4)cc3)NC2=O)cc1` [Compound 1280] ({CH2CO}-[4Pal]Y(Carboxymethyl)D[Phe(3-Me)]Y(Me)[Bip]Y(Carboxymethyl)[Orn][dL][Dab][Cha][Val(3-OH)]SC[Dab][Aha][Aun]-OH; thioether N-14), 243 nM. To `Cc1cccc(C[C@@H]2NC(=O)[C@H](CC(=O)O)NC(=O)[C@H](Cc3ccc(OCC(=O)O)cc3)NC(=O)[C@H](CN3CCOCC3)NC(=O)CSC[C@@H](C(=O)N[C@@H](CCN)C(=O)N[C@@H](CCN=[N+]=[N-])C(=O)NCCCCCCCCCCC(=O)O)NC(=O)[C@H](CO)NC(=O)[C@H](C(C)(C)O)NC(=O)[C@H](CC3CCCCC3)NC(=O)[C@H](CCN)NC(=O)[C@@H](CC(C)C)NC(=O)[C@H](CCCN)NC(=O)[C@H](Cc3ccc(OCC(=O)O)cc3)NC(=O)[C@H](Cc3ccc(-c4ccccc4)cc3)NC(=O)[C@H](Cc3ccc(OCC(=O)O)cc3)NC2=O)c1` [Compound 1281] ({CH2CO}-[Ala(morpholin-4-yl)]Y(Carboxymethyl)D[Phe(3-Me)]Y(Carboxymethyl)[Bip]Y(Carboxymethyl)[Orn][dL][Dab][Cha][Val(3-OH)]SC[Dab][Aha][Aun]-OH; thioether N-14) belongs 4.7 nM. On to `CC(C)C[C@@H]1NC(=O)[C@H](Cc2c[nH]c3ccccc23)NC(=O)[C@H](CC(=O)O)NC(=O)[C@H](Cc2ccncc2)NC(=O)[C@H](Cc2ccc(OCC(=O)O)cc2)NC(=O)CSC[C@@H](C(=O)Nc2cccc(C(=O)NCCCCCCCCCCC(=O)O)c2)NC(=O)[C@H](CN)NC(=O)[C@H](C(C)C)NC(=O)[C@H](CC2CCCCC2)NC(=O)[C@H](CCN)NC(=O)[C@@H](CC(C)C)NC(=O)[C@H](CCCN)NC(=O)[C@H](C(C)C)NC(=O)[C@H](Cc2ccc(-c3ccccc3)cc2)NC1=O` [Compound 1282] ({CH2CO}-Y(Carboxymethyl)[4Pal]DWL[Bip]V[Orn][dL][Dab][Cha]V[Dap]C[3Abz][Aun]-OH; thioether N-14), for which the IC50 was determined as 631 nM. To `COc1ccc(C[C@@H]2NC(=O)[C@H](CC(=O)O)NC(=O)[C@H](Cc3ccc(OCC(=O)O)cc3)NC(=O)[C@H](CN)NC(=O)CSC[C@@H](C(=O)N[C@@H](CCN)C(=O)NCCOCCOCC(=O)NCCCCCCCCCCC(=O)O)NC(=O)[C@H](CCCN)NC(=O)[C@H](C(C)C)NC(=O)[C@H](CC3CCCCC3)NC(=O)[C@H](CCN)NC(=O)[C@@H](CC(C)C)NC(=O)[C@H](CCCN)NC(=O)[C@H](Cc3ccc(O)cc3)NC(=O)[C@H](Cc3ccc(-c4ccccc4)cc3)NC(=O)[C@H](C(C)C)NC2=O)cc1OC` [Compound 1283] ({CH2CO}-[Dap]Y(Carboxymethyl)D[Phe(3,4-(OMe)2)]V[Bip]Y[Orn][dL][Dab][Cha]V[Orn]C[Dab][AEEA][Aun]-OH; thioether N-14) belongs 731 nM.
